These results are taken from patent publication US20220387455A1, “TREATMENT OF MODERATE TO SEVERE INFLUENZA” (priority 2015, published 2022).

Series [1] is described as follows: Example 1: clinical safety of single inhaled doses in healthy adults. The class given is in vivo, human. The method, then:
In a controlled clinical environment, 38 healthy adults received single doses of either 0.9% saline solution as placebo or up to 750 mg of ASA by inhalation (placebo n=10, ASA n=28).

Series [2] relates to influenza virus infection. As to conditions: for Time to alleviation of clinical influenza symptoms (T1), Mean: 800 mg LASAG (400 mg ASA) inhaled three times daily.
For series [3] the following is noted: in vivo.

Where a name gives a salt, the structure may show the parent alone. Read-outs that look alike come from different tables or passages of the source.

As for `CC(=O)Oc1ccccc1C(=O)O` [ASA, acetylsalicylic acid], the “Serious events or severe adverse effects” value in series [1] (single inhaled doses up to 750 mg ASA) is given as “no serious events or severe adverse effects were observed”. Further, in series [1] (single inhaled doses up to 750 mg ASA as LASAG solution about 200 mg/ml, AKITA Apixneb), the “Tolerability of administered doses” value is recorded as “overall well tolerated”. Moreover, the “Effect on pulmonary function tests parameters” value in series [1] (single inhaled doses up to 750 mg ASA, higher doses) is “no effect on pulmonary function tests parameters”.

As to `CC(=O)Oc1ccccc1C(=O)O` [LASAG, D,L-lysine acetylsalicylate glycine salt], in series [2] (CSS ≥14, per protocol set), the “Time to alleviation of clinical influenza symptoms (T1), Max.” value came out at 67.4 h; the “Time to alleviation of clinical influenza symptoms (T1), Min.” value was 9.8 h; the “Time to alleviation of clinical influenza symptoms (T1), Q1” value was determined as 23.5 h; the “Time to alleviation of clinical influenza symptoms (T1), Q3” value was determined as 52.4 h. Besides, in series [2] (CSS ≥14, per protocol set), the “Time to alleviation of clinical influenza symptoms (T1), Mean” value worked out at 38.3 h. Moreover, the “Time to alleviation of clinical influenza symptoms (T1), Median” value in series [2] (CSS ≥14, per protocol set, 800 mg LASAG inhaled three times daily) came out at 27.8 h. Besides, in series [2] (CSS ≥17, per protocol set), the “Time to alleviation of clinical influenza symptoms (T1), Max.” value is 66.9 h; the “Time to alleviation of clinical influenza symptoms (T1), Median” value came to 47.0 h; the “Time to alleviation of clinical influenza symptoms (T1), Min.” value came out at 23.5 h; the “Time to alleviation of clinical influenza symptoms (T1), Q1” value came to 27.8 h. Besides, in series [2] (CSS ≥17, per protocol set), the “Time to alleviation of clinical influenza symptoms (T1), Q3” value stood at 62.1 h and the “Time to alleviation of clinical influenza symptoms (T1), Mean” value was found to be 44.7 h. In addition, the “Time to alleviation of influenza symptoms T1” value in series [2] (first patient group with CSS (log rank p 0.0313), placebo 51.6 h) amounted to 38.3 h. Further, in series [2] (human, in vivo), the “Difference to placebo in time required for alleviation of clinical influenza symptoms” value is recorded as “no significant difference” and the “Recovery by baseline corrected daily activity score (DAS)” value is listed as “better recovery than the placebo group”. Besides, the “Number of inhalations after which patients were alleviated” value in series [2] (patients with CSS, assuming start with the morning inhalation, placebo about 9) is “about 6 inhalations”. In addition, the “Time to alleviation of influenza symptoms T1” value in series [2] (second patient group with CSS (log rank p 0.0152), placebo 71.5 h) was found to be 44.7 h. In addition, in series [3] (human), the “Number of adverse events (AE)” value stood at 41, the “Number of patients affected by AE” value was found to be 23, the “Required medication due to AEs” value is recorded as “About 56.1%” and the “Share of all adverse events (AE)” value worked out at 49.4%. Besides, in series [3] (human), the “Share of group patients affected by AE” value is listed as 41.1%. Also, in series [3], the “Death or other significant adverse events” value was “no case of death or other significant adverse events” and the “Difference to placebo with regard to tolerability” value was “no significant differences”.
